For the assay, the system named is nitrification. Description: Inhibition of nitrification in soil incubation test (ammonium and nitrate content after 14 days). The settings on record: 100 g soil, 10 mg ammonium sulfate-N, 20° C., 0 and 14 days; for NI* @ 1%: compound at 1% (of nitrogen N); for NI* @ 3%: compound at 3% (of nitrogen N); for NI* @ 0.3%: compound at 0.3% (of nitrogen N). The method, then:
The compounds of the invention have been tested as follows in terms of the inhibition of nitrification:
100 g soil is filled into 500 ml plastic bottles (e.g. soil sampled from the field) and is moistened to 50% water holding capacity. The soil is incubated at 20° C. for two weeks to activate the microbial biomass. 1 ml test solution, containing the compound in the appropriate concentration (usually 0.3 or 1% of nitrogen N), or DMSO and 10 mg nitrogen in the form of ammonium sulfate-N is added to the soil and everything mixed well. Bottles are capped but loosely to allow air exchange. The bottles are then incubated at 20° C. for 0 and 14 days.
For analysis, 300 ml of a 1% K2SO4-solution is added to the bottle containing the soil and shaken for 2 hours in a horizontal shaker at 150 rpm. Then the whole solution is filtered through a filter (Macherey-Nagel Filter MN 807%). Ammonium and nitrate content is then analyzed in the filtrate in an autoanalyzer at 550 nm (Merck, AA11).
The inhibition (NI @ a specified concentration) is calculated as follows: […]

Regarding `S=C1NCCS1` [Cmpd. 1, 1,3-Thiazolidine-2-thione], the “NI* @ 1%” value stood at 47 and the “NI* @ 3%” value is 83.5.
In the case of `COc1cccc(C(=O)N2CCSC2=S)c1` [Cmpd. 2, 3-(3-Methoxybenzoyl)-2-thiazolidinethione], the “NI* @ 0.3%” value worked out at 34.8, the “NI* @ 1%” value came to 73.1 and the “NI* @ 3%” value stood at 67.9.
The matching figures for `O=C(Cc1ccccc1)N1CCSC1=S` [Cmpd. 3, 3-(Phenylacetyl)-2-thiazolidinethione]: 26.6, 55.3 and 71.1.
For the molecule `CC(=O)N1CCSC1=S` [Cmpd. 4, 3-Acetylthiazolidine-2-thione], the “NI* @ 1%” value worked out at 32.3 and the “NI* @ 3%” value is given as 68.7.
On the same counts, the results for `O=C(c1ccc(Cl)cc1)N1CCSC1=S` [Cmpd. 5, 3-(4-Chlorobenzoyl)-2-thiazolidinethione] are 30.7 and 67.
`CC1(C)CSC(=S)N1` [Cmpd. 6, 4,4-Dimethyl-2-thiazolidinethione]: the “NI* @ 3%” value was 57.5.
Regarding `COc1ccc(C(=O)N2CCSC2=S)cc1` [Cmpd. 7, 3-(4-Methoxybenzoyl)-2-thiazolidinethione], the “NI* @ 0.3%” value was found to be 19.8, the “NI* @ 1%” value is on record as 27.5 and the “NI* @ 3%” value was 57.4.
For `COc1ccc(C(=O)N2CCSC2=S)cc1OC` [Cmpd. 8, 3-(3,4-Dimethoxybenzoyl)-2-thiazolidinethione], the “NI* @ 3%” value worked out at 55.
Still for that read-out and setting: to `O=C(c1cccc(Br)c1)N1CCSC1=S` [Cmpd. 9, 3-(3-Bromobenzoyl)-2-thiazolidinethione] belongs 49.
With `O=C(c1ccccc1)N1CCSC1=S` [Cmpd. 10, 3-Benzoyl-2-thiazolidinethione], the “NI* @ 3%” value worked out at 48.4.
The same measure, in the same setting: to `CN1CCSC1=S` [Cmpd. 11, 3-Methyl-2-thiazolidinethione] belongs 39.9.
On the same count and under the same terms, to `Cc1c(C(=O)N2CCSC2=S)oc2ccccc12` [Cmpd. 12, 3-[(3-Methyl-2-benzofuranyl)carbonyl]-2-thiazolidinethione] belongs 39.

Source of the values: US12151991B2, “Use of a substituted thiazolidine compound as nitrification inhibitor” (BASF SE, priority 2018, dated 2024).
